ChEMBL document CHEMBL1201862, “PubChem BioAssay data set” (2004)
Activity calls are given as the source filed them.

Columns and labels:
Genome polyprotein = Genome polyprotein (dengue virus type 2, UniProt P29990); assay: Dengue-2 NS5 methyltransferase inhibitors, primary screen, biochemical, confirmation dose response (AID 588689); type: functional
[1] = microbe, parasite or virus in culture; type: functional; settings: Mycobacterium tuberculosis
[2] = Shn3 3'UTR reporter inhibitors, dose response, cell-based, Clone20 osteoblasts, firefly luciferase, cherry-picked (AID 624132); type: functional;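 note: firefly luciferase luminescence from reporter carrying the Shn3 3'UTR in osteoblasts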
[3] = control 3'UTR Renilla luciferase suppression, dose response, counter-screen for Shn3 inhibitor project, cell-based, Clone20-Shn3RL, cherry-picked (AID 624133); type: functional
[4] = HepG2 cell cytotoxicity, dose response, cytotoxicity control for Shn3 inhibitor project, CellTiter-Glo, cherry-picked (AID 624134); type: functional, cell-based
[5] = target: T1, Carboxy-terminal domain RNA polymerase II polypeptide A small phosphatase 1 (Homo sapiens, UniProt Q9GZU7); assay: inhibitors of CTDSP1, concentration-response testing, biochemical assay, absorbance-based, actives from ultra-high-throughput screening (AID 540297); type: functional
T1 sequence (Q9GZU7 whole entry): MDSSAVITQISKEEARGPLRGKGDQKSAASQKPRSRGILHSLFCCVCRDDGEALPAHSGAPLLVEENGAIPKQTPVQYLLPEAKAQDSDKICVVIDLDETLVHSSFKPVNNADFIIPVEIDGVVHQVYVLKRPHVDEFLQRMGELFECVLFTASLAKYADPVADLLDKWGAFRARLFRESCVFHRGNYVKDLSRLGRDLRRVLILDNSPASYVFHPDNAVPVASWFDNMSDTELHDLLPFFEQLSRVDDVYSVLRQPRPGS

Cytochrome P450 2C9 = Cytochrome P450 2C9 (Homo sapiens, UniProt P11712)
Sequence of Cytochrome P450 2C9 (P11712 whole entry): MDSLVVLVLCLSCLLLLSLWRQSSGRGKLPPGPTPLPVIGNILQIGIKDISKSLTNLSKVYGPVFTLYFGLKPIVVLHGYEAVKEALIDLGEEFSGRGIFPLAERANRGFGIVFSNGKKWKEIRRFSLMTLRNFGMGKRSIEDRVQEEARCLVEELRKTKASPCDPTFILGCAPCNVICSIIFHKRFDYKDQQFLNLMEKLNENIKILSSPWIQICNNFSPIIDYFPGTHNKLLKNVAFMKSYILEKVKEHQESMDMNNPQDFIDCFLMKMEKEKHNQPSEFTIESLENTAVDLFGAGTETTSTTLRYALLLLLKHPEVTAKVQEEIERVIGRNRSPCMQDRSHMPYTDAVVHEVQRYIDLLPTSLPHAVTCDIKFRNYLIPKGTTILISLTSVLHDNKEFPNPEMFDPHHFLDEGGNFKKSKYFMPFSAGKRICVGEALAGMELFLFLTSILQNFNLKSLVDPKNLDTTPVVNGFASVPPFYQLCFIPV

Paired box protein Pax-8 = Paired box protein Pax-8 (Homo sapiens, UniProt Q06710); assay: inhibitors of PAX8-driven TPO luciferase reporter, dose response, RMG-I cells, cherry-pick (AID 687027); type: functional, cell-based;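 note: luciferase reporter driven by Pax8 target thyroperoxidase promoter measured by SteadyGlo luminescence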
Sequence of Paired box protein Pax-8 (Q06710 whole entry): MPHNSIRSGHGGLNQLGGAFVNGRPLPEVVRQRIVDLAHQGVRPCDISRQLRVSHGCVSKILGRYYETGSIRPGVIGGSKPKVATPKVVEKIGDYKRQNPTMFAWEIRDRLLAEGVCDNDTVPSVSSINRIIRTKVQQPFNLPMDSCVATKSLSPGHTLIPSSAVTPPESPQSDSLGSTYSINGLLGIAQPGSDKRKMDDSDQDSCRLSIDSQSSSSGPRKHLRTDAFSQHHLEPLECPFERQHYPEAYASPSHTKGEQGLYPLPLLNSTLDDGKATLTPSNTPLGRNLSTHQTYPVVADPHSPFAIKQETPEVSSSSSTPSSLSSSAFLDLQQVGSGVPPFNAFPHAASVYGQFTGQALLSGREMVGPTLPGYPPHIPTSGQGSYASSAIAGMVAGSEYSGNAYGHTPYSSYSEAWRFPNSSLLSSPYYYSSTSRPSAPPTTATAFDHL

H9c2 = assay: cells; type: functional, cell-based; settings: Rattus norvegicus, H9c2, Myocardium;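 note: confirmatory concentration-response retest of ultra-high-throughput screening hits for modulation of myocardial damage; cell death induced by hydrogen peroxide oxidative stress; compound pretreatment for 60 min then peroxide exposure for 2 h; potency is for protecting the cells against peroxide damage rather than for killing them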
Nonstructural protein 1 = Nonstructural protein 1 (Influenza A virus, UniProt Q194T2); type: functional, Influenza A virus (A/California/07/2009(H1N1))
Sequence of Nonstructural protein 1 (Q194T2 whole entry): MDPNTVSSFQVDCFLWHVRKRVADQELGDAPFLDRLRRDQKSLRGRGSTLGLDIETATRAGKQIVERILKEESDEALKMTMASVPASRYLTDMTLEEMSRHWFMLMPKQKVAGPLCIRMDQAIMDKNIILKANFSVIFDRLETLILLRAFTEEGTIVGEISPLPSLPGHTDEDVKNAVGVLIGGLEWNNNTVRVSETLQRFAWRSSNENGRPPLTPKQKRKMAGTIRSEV

[6] = Luminescence Cell-Based Dose Confirmation HTS to Identify Inhibitors of Platelet Dense Granule Release. [Related pubchem assays: 1663 (Primary HTS), 1678 (Summary of Project)]; type: functional
[7] = target: Luciferin 4-monooxygenase (Photinus pyralis, UniProt P08659); assay: firefly luciferase enzyme inhibitors, dose response, biochemical, luminescence (AID 1891)
Sequence of Luciferin 4-monooxygenase (P08659 whole entry): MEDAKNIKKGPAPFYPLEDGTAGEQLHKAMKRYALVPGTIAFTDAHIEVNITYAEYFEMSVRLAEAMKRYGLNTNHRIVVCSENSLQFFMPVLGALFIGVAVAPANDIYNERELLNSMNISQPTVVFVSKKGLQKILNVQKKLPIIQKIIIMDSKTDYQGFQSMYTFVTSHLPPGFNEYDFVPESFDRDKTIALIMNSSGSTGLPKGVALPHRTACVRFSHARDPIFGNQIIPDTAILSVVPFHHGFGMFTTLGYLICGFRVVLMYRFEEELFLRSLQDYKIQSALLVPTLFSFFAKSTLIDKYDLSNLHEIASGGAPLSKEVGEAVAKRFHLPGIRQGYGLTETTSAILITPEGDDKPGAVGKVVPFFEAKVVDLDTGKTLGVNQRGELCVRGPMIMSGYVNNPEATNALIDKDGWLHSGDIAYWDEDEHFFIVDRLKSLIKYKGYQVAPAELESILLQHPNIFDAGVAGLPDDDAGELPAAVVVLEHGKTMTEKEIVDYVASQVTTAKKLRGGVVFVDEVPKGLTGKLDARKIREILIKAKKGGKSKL

HeLa = assay: HeLa cell cytotoxicity, dose response, cytotoxicity control for MITF activator project, CellTiter-Glo luminescence, cherry-pick samples (AID 540259); type: functional, cell-based; settings: Homo sapiens
[8] = target: T2, Rac GTPase-activating protein 1 (Homo sapiens, UniProt Q9H0H5); assay: MgcRacGAP GTPase-activating activity inhibitors, confirmation, biochemical, ADP Hunter fluorescence, primary and confirmatory (AID 624330); type: functional
T2 sequence (Q9H0H5 whole entry): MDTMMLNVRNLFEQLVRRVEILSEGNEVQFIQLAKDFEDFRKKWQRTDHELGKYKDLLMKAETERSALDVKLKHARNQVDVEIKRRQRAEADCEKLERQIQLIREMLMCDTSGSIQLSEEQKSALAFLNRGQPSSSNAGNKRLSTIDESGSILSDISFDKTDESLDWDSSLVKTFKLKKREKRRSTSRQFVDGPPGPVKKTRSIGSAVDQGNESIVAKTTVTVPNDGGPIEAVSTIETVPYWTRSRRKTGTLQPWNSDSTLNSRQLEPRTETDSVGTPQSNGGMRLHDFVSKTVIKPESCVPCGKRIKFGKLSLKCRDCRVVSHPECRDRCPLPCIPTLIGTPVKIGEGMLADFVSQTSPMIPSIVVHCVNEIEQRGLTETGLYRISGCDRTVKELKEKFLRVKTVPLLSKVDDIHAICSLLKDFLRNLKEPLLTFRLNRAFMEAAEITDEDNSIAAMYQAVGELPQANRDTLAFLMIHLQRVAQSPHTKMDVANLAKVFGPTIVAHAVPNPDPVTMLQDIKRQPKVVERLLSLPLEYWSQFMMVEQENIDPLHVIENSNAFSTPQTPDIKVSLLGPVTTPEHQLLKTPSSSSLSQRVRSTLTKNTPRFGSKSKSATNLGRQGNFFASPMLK

[9] = Luminescence Cell-Based Dose Retest to Confirm Inhibitors of Cancer Stem Cells. [Related pubchem assays (depositor defined):AID2717, AID2721]; type: functional; settings: Homo sapiens
[10] = target: FAD-linked sulfhydryl oxidase ALR (Homo sapiens, UniProt P55789); assay: inhibitors of human ALR sulfhydryl oxidase, dose response, biochemical, H2O2 detection, luminescence, cherry-pick (AID 493248)
Sequence of FAD-linked sulfhydryl oxidase ALR (P55789 whole entry): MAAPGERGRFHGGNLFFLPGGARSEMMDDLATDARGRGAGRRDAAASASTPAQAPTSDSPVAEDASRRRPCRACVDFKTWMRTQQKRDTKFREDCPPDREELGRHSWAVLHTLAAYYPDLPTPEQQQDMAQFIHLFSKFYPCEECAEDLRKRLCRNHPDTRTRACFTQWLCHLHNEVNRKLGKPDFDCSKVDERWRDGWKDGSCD

Sequence of Genome polyprotein (P29990 2492-3391 limits assumed): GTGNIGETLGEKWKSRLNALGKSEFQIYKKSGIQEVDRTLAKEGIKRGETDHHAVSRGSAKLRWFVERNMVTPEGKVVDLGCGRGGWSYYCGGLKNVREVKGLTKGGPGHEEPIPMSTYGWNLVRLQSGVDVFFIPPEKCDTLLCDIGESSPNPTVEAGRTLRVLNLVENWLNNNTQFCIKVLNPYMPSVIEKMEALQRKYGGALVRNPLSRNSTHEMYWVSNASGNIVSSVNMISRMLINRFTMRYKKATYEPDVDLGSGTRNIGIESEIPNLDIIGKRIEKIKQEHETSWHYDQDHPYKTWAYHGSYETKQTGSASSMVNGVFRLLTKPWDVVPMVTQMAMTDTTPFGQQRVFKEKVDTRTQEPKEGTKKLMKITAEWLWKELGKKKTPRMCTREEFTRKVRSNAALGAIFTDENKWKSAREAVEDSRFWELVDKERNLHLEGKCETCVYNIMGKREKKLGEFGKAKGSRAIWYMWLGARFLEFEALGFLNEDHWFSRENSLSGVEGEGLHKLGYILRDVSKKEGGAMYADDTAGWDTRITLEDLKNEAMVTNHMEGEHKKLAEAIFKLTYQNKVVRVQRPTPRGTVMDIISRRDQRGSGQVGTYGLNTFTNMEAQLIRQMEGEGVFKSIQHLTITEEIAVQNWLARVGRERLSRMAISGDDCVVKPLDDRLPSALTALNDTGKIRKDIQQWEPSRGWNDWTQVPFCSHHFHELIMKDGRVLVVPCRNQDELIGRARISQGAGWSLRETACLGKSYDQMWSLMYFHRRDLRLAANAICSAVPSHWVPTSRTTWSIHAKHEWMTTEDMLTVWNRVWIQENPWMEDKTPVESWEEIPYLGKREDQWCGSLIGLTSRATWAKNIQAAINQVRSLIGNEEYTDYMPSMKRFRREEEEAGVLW

In the case of `O=C1NC(=O)C(=Cc2ccc3ccccc3c2)C(=O)N1`, the IC50 (Genome polyprotein) is reported as 50.8 µM (active).

In the case of `CC(C)(C)C(=O)N1CCN(c2ccc(NC(=O)c3ccc([N+](=O)[O-])o3)cc2)CC1`, the CC50 [1] is reported as 2.96 µM (active), the AC50 [2] is reported as 2.45 µM (active) and the AC50 [3] is reported as 7.74 µM (active). The AC50 [4] was > 70 µM (inactive).

With `O=C(Cc1ccc(Cl)cc1)Nc1ccc(N2CCN(C(=O)c3ccco3)CC2)cc1` the AC50 [2] was > 70 µM (inactive), the AC50 [3] was 6.62 µM (active) and the AC50 [4] was > 70 µM (inactive).

In the case of `COc1ccc(OCC(=O)NNC(=O)c2ccc(-c3ccccc3)cc2)cc1`, the IC50 [5] is reported as 7.77 µM (active) and the AC50 (Cytochrome P450 2C9) is reported as “inconclusive”.

For `C=CC[C@H](CC(=O)N(CCO)Cc1ccccc1)C(=O)N[C@@H](COC(=O)[C@H](CC=C)CC(=O)OC(C)(C)C)Cc1c[nH]c2ccccc12`, the AC50 (Paired box protein Pax-8) was 15.9 µM (active).

For `COc1cc(-c2cnc3c(NC=O)cc(-c4cccc(NC(C)=O)c4)cn23)cc(OC)c1OC`, the AC50 (Paired box protein Pax-8) was 2.88 µM (active) and the IC50 (H9c2) was > 79 µM (inactive).

With `C[C@@H]1CCCCO[C@@H](CN(C)Cc2ccc(C(F)(F)F)cc2)[C@H](C)CN([C@H](C)CO)C(=O)c2cc(NS(=O)(=O)c3ccc(Cl)cc3)ccc2O1` the AC50 (Paired box protein Pax-8) was 8.48 µM (active).

For `O=S1(=O)N=C(N/N=C/c2ccccn2)c2ccccc21`, the IC50 (Nonstructural protein 1) was 3.27 µM (active).

With `O=C(Cn1cncn1)N/N=C/c1ccccc1O` the IC50 (Nonstructural protein 1) was 22.1 µM (active).

With `Oc1ccc(/C=N/Nc2cccc(Cl)n2)c(O)c1` the EC50 [6] was 1.39 µM (active), the EC50 [7] was 1.66 µM (active) and the AC50 (HeLa) was 316 µM (active). The IC50 [8] was 29 µM (active).

For `COc1cccc(/C=N/N2C(=O)CSC2=S)c1O`, the IC50 (Nonstructural protein 1) was 2.19 µM (active).

For `Clc1ccc(N/N=C/c2cccnc2)cc1`, the AC50 [9] was 4.65 µM (active), the AC50 (HeLa) was 41.7 µM (active) and the AC50 [10] was 0.426 µM (active).

In the case of `CCNC(=O)C(=O)N/N=C/c1cc([N+](=O)[O-])ccc1O`, the IC50 (Nonstructural protein 1) is reported as 2.44 µM (active).
